ChEMBL document CHEMBL1125643, “N-(5-fluorobenzothiazol-2-yl)-2-guanidinothiazole-4-carboxamide. A novel, systemically active antitumor agent effective against 3LL Lewis lung carcinoma” (J Med Chem, 1991)

Columns and labels:
[1] = Drug related lethality is percent animals in treated groups dying prior to first tumor related death in untreated groups measured in BDF1 mice after ip administration at 8 mg/kg dose days 3,7,11 after tumor challenge; format: toxicity, organism-based; design: dose 8 mg/kg, route intraperitoneal; conditions: BDF1, mus sp., in vivo, read-out: Lethality
[2] = system: Mus sp.; experiment: In vivo activity measured against 3LL metastasis in BDF1 mice after ip administration at 16 mg/kg dose, dosing on days 3,7,11 after tumor challenge; format: functional; conditions: route intraperitoneal
[3] = system: Mus sp.; experiment: In vivo activity measured against 3LL metastasis in BDF1 mice after ip administration at 8 mg/kg dose, dosing on days 3,7,11 after tumor challenge; format: functional; conditions: route intraperitoneal
[4] = system: Mus sp.; experiment: In vivo activity measured against 3LL metastasis in BDF1 mice after ip administration at 32 mg/kg dose, dosing on days 3,7,11 after tumor challenge; format: functional; conditions: route intraperitoneal
[5] = Drug related lethality is percent animals in treated groups dying prior to first tumor related death in untreated groups measured in BDF1 mice after ip administration at 16 mg/kg dose days 3,7,11 after tumor challenge; format: toxicity, organism-based; design: dose 16 mg/kg, route intraperitoneal; conditions: BDF1, mus sp., in vivo, read-out: Lethality
[6] = Drug related lethality is percent animals in treated groups dying prior to first tumor related death in untreated groups measured in BDF1 mice after ip administration at 32 mg/kg dose days 3,7,11 after tumor challenge; format: toxicity, organism-based; design: dose 32 mg/kg, route intraperitoneal; conditions: BDF1, mus sp., in vivo, read-out: Lethality
[7] = system: Mus sp.; experiment: Drug related lethality is percent animals in treated groups dying prior to first tumor related death in untreated groups measured in BDF1 mice after ip administration at 5 mg/kg dose 3 days after tumor challenge; format: toxicity, organism-based; design: dose 5 mg/kg, route intraperitoneal; conditions: in vivo, 72 h
[8] = system: Mus sp.; experiment: Drug related lethality is percent animals in treated groups dying prior to first tumor related death in untreated groups measured in BDF1 mice after ip administration at 10 mg/kg dose 3 days after tumor challenge; format: toxicity, organism-based; design: dose 10 mg/kg, route intraperitoneal; conditions: in vivo, 72 h
[9] = Drug related lethality is percent animals in treated groups dying prior to first tumor related death in untreated groups measured in BDF1 mice after ip administration at 50 mg/kg dose 2-4 days after tumor challenge; format: toxicity, organism-based; design: dose 50 mg/kg, route intraperitoneal; conditions: BDF1, mus sp., in vivo, read-out: Lethality
[10] = system: Mus sp.; experiment: In vivo activity measured against 3LL metastasis in BDF1 mice after ip administration at 100 mg/kg dose, dosing on days 2-4 after tumor challenge; format: functional; conditions: route intraperitoneal
[11] = system: Mus sp.; experiment: In vivo activity measured against 3LL metastasis in BDF1 mice after ip administration at 100 mg/kg dose, dosing on days 3-6 after tumor challenge; format: functional; conditions: route intraperitoneal
[12] = system: Mus sp.; experiment: In vivo activity measured against 3LL metastasis in BDF1 mice after ip administration at 200 mg/kg dose, dosing on days 2-4 after tumor challenge; format: functional; conditions: route intraperitoneal
[13] = system: Mus sp.; experiment: In vivo activity measured against 3LL metastasis in BDF1 mice after ip administration at 25 mg/kg dose, dosing on days 2-4 after tumor challenge; format: functional; conditions: route intraperitoneal
[14] = system: Mus sp.; experiment: In vivo activity measured against 3LL metastasis in BDF1 mice after ip administration at 50 mg/kg dose, dosing on days 2-4 after tumor challenge; format: functional; conditions: route intraperitoneal
[15] = system: Mus sp.; experiment: In vivo activity measured against 3LL metastasis in BDF1 mice after ip administration at 50 mg/kg dose, dosing on days 3-6 after tumor challenge; format: functional; conditions: route intraperitoneal
[16] = Drug related lethality is percent animals in treated groups dying prior to first tumor related death in untreated groups measured in BDF1 mice after ip administration at 25 mg/kg dose 2-4 days after tumor challenge; format: toxicity, organism-based; design: dose 25 mg/kg, route intraperitoneal; conditions: BDF1, mus sp., in vivo, read-out: Lethality
[17] = Drug related lethality is percent animals in treated groups dying prior to first tumor related death in untreated groups measured in BDF1 mice after ip administration at 100 mg/kg dose 2-4 days after tumor challenge; format: toxicity, organism-based; design: dose 100 mg/kg, route intraperitoneal; conditions: BDF1, mus sp., in vivo, read-out: Lethality
[18] = Drug related lethality is percent animals in treated groups dying prior to first tumor related death in untreated groups measured in BDF1 mice after ip administration at 100 mg/kg dose 3-6 days after tumor challenge; format: toxicity, organism-based; design: dose 100 mg/kg, route intraperitoneal; conditions: BDF1, mus sp., in vivo, read-out: Lethality
[19] = Drug related lethality is percent animals in treated groups dying prior to first tumor related death in untreated groups measured in BDF1 mice after ip administration at 200 mg/kg dose 2-4 days after tumor challenge; format: toxicity, organism-based; design: dose 200 mg/kg, route intraperitoneal; conditions: BDF1, mus sp., in vivo, read-out: Lethality
[20] = system: Mus sp.; experiment: In vivo activity measured against 3LL metastasis in BDF1 mice after ip administration at 10 mg/kg dose, dosing on days 3 after tumor challenge; format: functional, organism-based; design: dose 10 mg/kg
[21] = system: Mus sp.; experiment: In vivo activity measured against 3LL metastasis in BDF1 mice after ip administration at 5 mg/kg dose, dosing on days 3 after tumor challenge; format: functional, organism-based; design: dose 5 mg/kg

For `COc1cc([C@@H]2c3cc4c(cc3[C@@H](O[C@@H]3O[C@@H]5CO[C@@H](C)O[C@H]5[C@H](O)[C@H]3O)[C@H]3COC(=O)[C@H]23)OCO4)cc(OC)c1O` [ETOPOSIDE], the mortality [1] was 0%, the T/C [2] was 128% and the T/C [3] was 118%. It also gave a T/C [4] of 130%, a mortality [5] of 0% and a mortality [6] of 7%.
With CISPLATIN [listing 1 of 2 here] the Lethality [7] was 0% and the Lethality [8] was 0%.
`O=c1[nH]cc(F)c(=O)[nH]1` [FLUOROURACIL] gave a mortality [9] of 0%, a T/C [10] of 127% and a T/C [11] of 125%. For the same compound, the T/C [12] was 141%, the T/C [13] was 114% and the T/C [14] was 118%. It also gave a T/C [15] of 109%, a mortality [16] of 0% and a mortality [17] of 0%. The mortality [18] was 14% and the mortality [19] was 28%.
For CISPLATIN [listing 2 of 2 here], the T/C [20] was 116% and the T/C [21] was 112%.
